Data set [1] can be described thus: Thermodynamic solubility (shake-flask). It counts as physicochemical. Particulars: thermodynamic from solid, phosphate buffer pH 7.4, 24 hours.
Data set [2] has as its target recombinant human Estrogen Receptor alpha ligand binding domain (ER alpha-LBD (GST)) (Homo sapiens (Human), UniProt P03372). In words: ERα binding assay (LanthaScreen TR-FRET competition). Background: Time-resolved FRET reads energy transfer from a long-lived donor to a nearby acceptor.
A short description of data set [3]: Log D (shake flask, 1-octanol/aqueous buffer). Format: physicochemical.
Data set [4] deals with hERG potassium channel (Homo sapiens (Human), UniProt Q12809).
Sequence of hERG potassium channel (Q12809 whole entry): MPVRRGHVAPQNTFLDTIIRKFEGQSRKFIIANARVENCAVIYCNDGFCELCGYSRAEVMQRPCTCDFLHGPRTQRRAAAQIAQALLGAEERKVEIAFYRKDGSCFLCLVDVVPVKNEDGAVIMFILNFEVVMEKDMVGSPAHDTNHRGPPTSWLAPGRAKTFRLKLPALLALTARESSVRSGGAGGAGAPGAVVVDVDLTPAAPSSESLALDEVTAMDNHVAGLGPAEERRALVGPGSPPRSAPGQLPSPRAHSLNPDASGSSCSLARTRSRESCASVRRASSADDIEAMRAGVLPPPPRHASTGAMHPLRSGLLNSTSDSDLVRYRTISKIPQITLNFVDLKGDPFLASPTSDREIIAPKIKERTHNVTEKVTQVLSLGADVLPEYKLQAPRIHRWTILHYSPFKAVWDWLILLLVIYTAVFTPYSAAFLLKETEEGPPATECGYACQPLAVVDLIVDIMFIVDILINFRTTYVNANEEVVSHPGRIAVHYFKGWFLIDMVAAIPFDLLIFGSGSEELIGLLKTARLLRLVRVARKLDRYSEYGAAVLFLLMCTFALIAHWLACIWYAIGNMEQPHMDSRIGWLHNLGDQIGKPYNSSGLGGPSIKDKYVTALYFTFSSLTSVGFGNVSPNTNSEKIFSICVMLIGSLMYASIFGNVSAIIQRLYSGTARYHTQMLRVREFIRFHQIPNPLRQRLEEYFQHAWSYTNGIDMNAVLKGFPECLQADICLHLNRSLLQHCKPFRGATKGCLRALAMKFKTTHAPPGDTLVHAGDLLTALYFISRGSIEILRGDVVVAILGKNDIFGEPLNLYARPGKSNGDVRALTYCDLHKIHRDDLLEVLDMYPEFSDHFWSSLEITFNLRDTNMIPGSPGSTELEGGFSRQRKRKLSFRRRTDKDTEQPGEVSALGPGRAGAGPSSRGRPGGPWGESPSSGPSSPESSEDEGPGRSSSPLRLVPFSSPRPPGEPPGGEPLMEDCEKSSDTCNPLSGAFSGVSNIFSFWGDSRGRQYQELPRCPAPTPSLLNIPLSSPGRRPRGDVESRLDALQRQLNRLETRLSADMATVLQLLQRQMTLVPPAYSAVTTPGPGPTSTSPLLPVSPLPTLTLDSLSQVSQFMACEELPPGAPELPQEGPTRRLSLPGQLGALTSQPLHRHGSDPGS
For data set [5], the target named is Estrogen Receptor (ERα) in MCF-7 cells (Homo sapiens (Human), UniProt P03372). The experiment in a line: MCF-7 ER down-regulation assay (immuno-fluorescence). Format: cell-based. As to conditions: for % downregulation (in brackets): maximum downregulation.
Sequence of Estrogen Receptor (ERα) in MCF-7 cells (P03372 whole entry): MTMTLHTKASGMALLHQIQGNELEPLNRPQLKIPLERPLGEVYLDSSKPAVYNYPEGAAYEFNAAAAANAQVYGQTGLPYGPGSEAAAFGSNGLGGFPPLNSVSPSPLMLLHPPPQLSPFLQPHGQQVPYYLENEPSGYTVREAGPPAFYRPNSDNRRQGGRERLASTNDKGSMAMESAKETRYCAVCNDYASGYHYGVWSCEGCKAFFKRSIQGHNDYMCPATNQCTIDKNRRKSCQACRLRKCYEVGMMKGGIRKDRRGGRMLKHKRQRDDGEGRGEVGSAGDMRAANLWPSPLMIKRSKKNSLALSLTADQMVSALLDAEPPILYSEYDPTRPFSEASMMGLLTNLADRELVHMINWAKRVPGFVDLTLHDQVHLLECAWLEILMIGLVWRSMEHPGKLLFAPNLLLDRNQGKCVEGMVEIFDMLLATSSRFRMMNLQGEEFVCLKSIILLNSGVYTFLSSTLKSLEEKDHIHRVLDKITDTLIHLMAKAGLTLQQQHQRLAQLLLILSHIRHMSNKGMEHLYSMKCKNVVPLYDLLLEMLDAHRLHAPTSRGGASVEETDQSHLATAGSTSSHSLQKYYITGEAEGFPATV
Data set [6] in a line: Human plasma protein binding (equilibrium dialysis). It counts as in vitro ADME. In general terms: In equilibrium dialysis only unbound substance equilibrates across the membrane.
Setting [7] is: aqueous phosphate buffer, 25 °C, pH 7.4, aqueous buffer.
Where [8] appears, read: 1-octanol/aqueous buffer, pH 7.4, pH 7.4.

Each structure is given as a SMILES string. In brackets after ≈: the same amount, converted by molar mass. Bounds are passed on as bounds.

Sequence of recombinant human Estrogen Receptor alpha ligand binding domain (ER alpha-LBD (GST)) (P03372 307-554): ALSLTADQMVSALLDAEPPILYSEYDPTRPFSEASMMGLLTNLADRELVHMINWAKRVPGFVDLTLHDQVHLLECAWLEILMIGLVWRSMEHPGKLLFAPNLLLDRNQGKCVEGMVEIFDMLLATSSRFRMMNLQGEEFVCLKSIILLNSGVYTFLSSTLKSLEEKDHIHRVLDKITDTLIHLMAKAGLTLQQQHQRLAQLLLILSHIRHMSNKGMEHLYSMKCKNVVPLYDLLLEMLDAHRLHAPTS

Consider `C[C@@H]1Cc2c([nH]c3ccccc23)[C@@H](c2nccc(OCCNCCCF)c2F)N1CC(F)F` [Example 98, N-(2-((2-((1S,3R)-2-(2,2-difluoroethyl)-3-methyl-2,3,4,9-tetrahydro-1H-pyrido[3,4-b]indol-1-yl)-3-fluoropyridin-4-yl)oxy)ethyl)-3-fluoropropan-1-amine], for which, in data set [1] (setting [7]), the solubility (in general, how much of the substance goes into solution per volume) at 24 h was determined as 594 µM (≈ 276 µg/mL). In addition, the concentration for half-maximal inhibition (IC50) (in general, the concentration at which inhibition is half-maximal) in data set [2] is 1.9 nM; in data set [4], above 32000 nM; in data set [5], 1.2 nM. Further, the log distribution coefficient (logD) (in general, the decadic logarithm of the distribution of all forms, ionised or not, between an organic phase and buffer at a given pH) in data set [3] (setting [8]) amounted to 2.3.

In data set [1] (setting [7]), `C[C@@H]1Cc2c([nH]c3ccccc23)[C@@H](c2nccc(OCCNCCCF)c2F)N1CC1(F)COC1` [Example 100, 3-fluoro-N-(2-((3-fluoro-2-((1S,3R)-2-((3-fluorooxetan-3-yl)methyl)-3-methyl-2,3,4,9-tetrahydro-1H-pyrido[3,4-b]indol-1-yl)pyridin-4-yl)oxy)ethyl)propan-1-amine] displayed a solubility at 24 h above 1000 µM. Besides, the values for the half-inhibitory concentration (IC50) in data set [2], in data set [4] and in data set [5] were 5.2 nM, 19000 nM and 11 nM, respectively. Also, the logD in data set [3] (setting [8]) was 2.5.

In data set [1] (setting [7]), `C[C@@H]1Cc2c([nH]c3ccccc23)[C@@H](c2cc(OCCNCCCF)ncc2F)N1CC(F)(F)F` [Example 39, 3-fluoroN-(2-((5-fluoro-4-((1R,3R)-3-methyl-2-(2,2,2-trifluoroethyl)-2,3,4,9-tetrahydro-1H-pyrido[3,4-b]indol-1-yl)pyridin-2-yl)oxy)ethyl)propan-1-amine] displayed a solubility at 24 h of 259 µM (≈ 125 µg/mL). Further, the 50% inhibitory concentration (IC50) in data set [2] is 1.4 nM; in data set [4], 3900 nM; in data set [5], 0.26 nM. Moreover, the logD in data set [3] (setting [8]) stood at 3.6.

Regarding `COc1cnc(NCCNCCCF)cc1[C@@H]1c2[nH]c3ccccc3c2C[C@@H](C)N1CC(F)(F)F` [Example 42], in data set [1] (setting [7]), the solubility at 24 h came to 349 µM (≈ 172 µg/mL). For the same compound, the concentration for half-maximal inhibition (IC50) was 3.7 nM in data set [2], 7100 nM in data set [4] and 1.9 nM in data set [5]. In data set [3] (setting [8]), the log distribution coefficient (logD) worked out at 2.9.

In turn, `C[C@@H]1Cc2c([nH]c3ccccc23)[C@@H](c2cccc(OCCNCCCF)c2C#N)N1CC(F)(F)F` [Example 69, 2-(2-((3-fluoropropyl)amino)ethoxy)-6-((1R,3R)-3-methyl-2-(2,2,2-trifluoroethyl)-2,3,4,9-tetrahydro-1H-pyrido[3,4-b]indol-1-yl)benzonitrile] had a solubility at 24 h in data set [1] (setting [7]) of 150 µM (≈ 73.3 µg/mL). Besides, the figures for the half-maximal inhibitory concentration (IC50) in data set [2] and in data set [5] were 1.4 nM and 1.5 nM, respectively. The compound further came in with a logD in data set [3] (setting [8]) of 3.6. The “Human plasma protein binding (% free)” value in data set [6] was determined as 2.2 % free.

Take `COc1cc(F)c(OCCNCCCF)cc1[C@@H]1c2[nH]c3ccccc3c2C[C@@H](C)N1CC(F)(F)F` [Example 28, 3-fluoro-N-(2-(2-fluoro-4-methoxy-5-((1R,3R)-3-methyl-2-(2,2,2-trifluoroethyl)-2,3,4,9-tetrahydro-1H-pyrido[3,4-b]indol-1-yl)phenoxy)ethyl)propan-1-amine]: the solubility at 24 h in data set [1] (setting [7]) was 40 µM (≈ 20.5 µg/mL). Also, the results for the IC50 in data set [2] and in data set [5] were 2.8 nM and 0.8 nM, respectively. Further, in data set [3] (setting [8]), the log distribution coefficient (logD) came to 3.8. For the same compound, the “Human plasma protein binding (% free)” value in data set [6] is given as 1.2 % free.

`COc1ccc(OC[C@@H](C)NCCCF)cc1[C@@H]1c2[nH]c3ccccc3c2C[C@@H](C)N1CC(F)(F)CO` [Example 50, 2,2-difIuoro-3-((1R,3R)-1-(5-((S)-2-((3-fluoropropyl)amino)propoxy)-2-methoxyphenyl)-3-methyl-1,3,4,9-tetrahydro-2H-pyrido[3,4-b]indol-2-yl)propan-1-ol] came in with a solubility at 24 h in data set [1] (setting [7]) of 461 µM (≈ 240 µg/mL). Besides, the half-inhibitory concentration (IC50) in data set [2] is 1 nM. The logD in data set [3] (setting [8]) was determined as 2.8. In addition, in data set [5], the IC50 is 0.81 nM and the “% downregulation (in brackets)” value worked out at 81%. Further, in data set [6], the “Human plasma protein binding (% free)” value was 7.1 % free.

In the case of `C[C@@H]1Cc2c([nH]c3ccccc23)[C@@H](c2c(Cl)ccc(OCCNCCCF)c2F)N1CC(F)(F)F` [Example 78, N-(2-(4-chloro-2-fluoro-3-((1R,3R)-3-methyl-2-(2,2,2-trifluoroethyl)-2,3,4,9-tetrahydro-1H-pyrido[3,4-b]indol-1-yl)phenoxy)ethyl)-3-fluoropropan-1-amine], the solubility at 24 h in data set [1] (setting [7]) amounted to 26 µM (≈ 13.4 µg/mL). Further, the results for the IC50 in data set [2] and in data set [5] were 1.3 nM and 0.12 nM, respectively. Further, in data set [3] (setting [8]), the pH-dependent lipophilicity (logD) turned out to be 4. Moreover, the “Human plasma protein binding (% free)” value in data set [6] is 0.21 % free.

In data set [1] (setting [7]), `C[C@@H]1Cc2c([nH]c3ccccc23)[C@@H](c2ccnc(OCCNCCCF)c2Cl)N1CC(F)(F)CO` [Example 104, 3-((1R,3R)-1-(3-chloro-2-(2-((3-fluoropropyl)amino)ethoxy)pyridin-4-yl)-3-methyl-1,3,4,9-tetrahydro-2H-pyrido[3,4-b]indol-2-yl)-2,2-difluoropropan-1-ol] returned a solubility at 24 h of 431 µM (≈ 220 µg/mL). Besides, the IC50 in data set [2] came to 0.72 nM; in data set [5] it was 0.17 nM. The same compound displayed a log distribution coefficient (logD) in data set [3] (setting [8]) of 3. For the same compound, the “Human plasma protein binding (% free)” value in data set [6] is on record as 2.8 % free.

As for `Cc1c(NCCNCCCF)ccc(F)c1[C@@H]1c2[nH]c3ccccc3c2C[C@@H](C)N1C[C@H](C)C(=O)O` [Example 135, (S)-3-((1R,3R)-1-(6-fluoro-3-((2-((3-fluoropropyl)amino)ethyl)amino)-2-methylphenyl)-3-methyl-1,3,4,9-tetrahydro-2H-pyrido[3,4-b]indol-2-yl)-2-methylpropanoic acid], the solubility at 24 h in data set [1] (setting [7]) is above 1000 µM. Further, the IC50 in data set [2] was found to be 160 nM; in data set [5], 16 nM. In data set [3] (setting [8]), this compound showed a logD of 0.5. Further, the “Human plasma protein binding (% free)” value in data set [6] is recorded as 32 % free.

Regarding `C[C@@H]1Cc2c([nH]c3ccccc23)[C@@H](c2cncc(OCCNCCCF)c2)N1CC(F)(F)F` [Example 101, 3-fluoro-N-(2-((5-((1R,3R)-3-methyl-2-(2,2,2-trifluoroethyl)-2,3,4,9-tetrahydro-1H-pyrido[3,4-b]indol-1-yl)pyridin-3-yl)oxy)ethyl)propan-1-amine], the solubility at 24 h in data set [1] (setting [7]) was determined as 329 µM (≈ 153 µg/mL). In addition, the IC50 in data set [2] amounted to 9.2 nM; in data set [5], 27 nM. This compound also returned a logD in data set [3] (setting [8]) of 3.3. The “Human plasma protein binding (% free)” value in data set [6] was found to be 8.4 % free.

`COc1ccc(OCCNCCCF)nc1[C@@H]1c2[nH]c3ccccc3c2C[C@@H](C)N1CC(F)(F)F` [Example 56, 3-fluoro-N-(2-((5-methoxy-6-((1S,3R)-3-methyl-2-(2,2,2-trifluoroethyl)-2,3,4,9-tetrahydro-1H-pyrido[3,4-b]indol-1-yl)pyridin-2-yl)oxy)ethyl)propan-1-amine]: the solubility at 24 h in data set [1] (setting [7]) was 445 µM (≈ 220 µg/mL). Further, the IC50 in data set [2] came to 39 nM; in data set [5] it was 14 nM. The compound further registered a logD in data set [3] (setting [8]) of 2.7. Further, the “Human plasma protein binding (% free)” value in data set [6] worked out at 4.6 % free.

`C[C@@H]1Cc2c([nH]c3ccccc23)[C@@H](c2c(F)ccc(OCCN(C)CCCF)c2C(F)F)N1C[C@H](C)C(=O)O` [Example 148, (S)-3-((1R,3R)-1-(2-(difluoromethyl)-6-fluoro-3-(2-((3-fluoropropyl)(methyl)amino)ethoxy)phenyl)-3-methyl-1,3,4,9-tetrahydro-2H-pyrido[3,4-b]indol-2-yl)-2-methylpropanoic acid] gave a solubility at 24 h in data set [1] (setting [7]) of 788 µM (≈ 433 µg/mL). Also, in data set [2], the IC50 was 1.1 nM. The same compound displayed a pH-dependent lipophilicity (logD) in data set [3] (setting [8]) of 1.5. In data set [5], the IC50 came to 0.42 nM and the “% downregulation (in brackets)” value is on record as 68%. For the same compound, in data set [6], the “Human plasma protein binding (% free)” value is reported as 10 % free.

As for `COc1ccc(OCCNCCCF)c(F)c1[C@@H]1c2[nH]c3ccccc3c2C[C@@H](C)N1CC(F)F` [Example 82, N-(2-(3-((1R,3R)-2-(2,2-difluoroethyl)-3-methyl-2,3,4,9-tetrahydro-1H-pyrido[3,4-b]indol-1-yl)-2-fluoro-4-methoxyphenoxy)ethyl)-3-fluoropropan-1-amine], the solubility at 24 h in data set [1] (aqueous buffer, 25° C.) worked out at 475 µM (≈ 234 µg/mL). Besides, the IC50 in data set [2] came out at 0.8 nM; in data set [5] it was 0.042 nM. Besides, the logD in data set [3] (pH 7.4) was found to be 2.9. The “Human plasma protein binding (% free)” value in data set [6] worked out at 1.9 % free.

`CC(CN1[C@H](c2c(Cl)ccc(OCCNCCCF)c2Cl)c2[nH]c3ccc(F)cc3c2C[C@H]1C)C(=O)O` (single isomer, unassigned) [Example 129] showed a solubility at 24 h in data set [1] (setting [7]) of 953 µM (≈ 528 µg/mL). For the same compound, the IC50 in data set [2] was 8.9 nM; in data set [5], 2.6 nM. Besides, the pH-dependent lipophilicity (logD) in data set [3] (setting [8]) was 1.5. Besides, the “Human plasma protein binding (% free)” value in data set [6] stood at 23 % free.

Compound `Cc1c([C@@H]2c3[nH]c4ccccc4c3C[C@@H](C)N2CC(F)(F)F)ccnc1OCCNCCCF` [Example 106, 3-fluoro-N-(2-((3-methyl-4-((1R,3R)-3-methyl-2-(2,2,2-trifluoroethyl)-2,3,4,9-tetrahydro-1H-pyrido[3,4-b]indol-1-yl)pyridin-2-yl)oxy)ethyl)propan-1-amine] registered a solubility at 24 h in data set [1] (setting [7]) of 264 µM (≈ 126 µg/mL). For the same compound, the figures for the IC50 in data set [2] and in data set [5] were 0.92 nM and 0.095 nM, respectively. In data set [3] (setting [8]), this compound showed a pH-dependent lipophilicity (logD) of 3.9. Further, the “Human plasma protein binding (% free)” value in data set [6] was found to be 0.34 % free.

Compound `Cc1c(N(C)CCNCCCF)ccc(F)c1[C@@H]1c2[nH]c3ccccc3c2C[C@@H](C)N1C[C@H](C)C(=O)O` [Example 136, (S)-3-((1R,3R)-1-(6-fluoro-3-((2-((3-fluoropropyl)amino)ethyl)(methyl)amino)-2-methylphenyl)-3-methyl-1,3,4,9-tetrahydro-2H-pyrido[3,4-b]indol-2-yl)-2-methylpropanoic acid] gave a solubility at 24 h in data set [1] (setting [7]) of 328 µM (≈ 168 µg/mL). Besides, the IC50 was 2 nM in data set [2] and above 300 nM in data set [5]. In addition, in data set [3] (setting [8]), the logD turned out to be 1.1. Also, the “Human plasma protein binding (% free)” value in data set [6] is 2.1 % free.

(Values after US10221173B2, “Chemical compounds” (AstraZeneca AB, priority 2017, dated 2019).)
